Assay [1] deals with Mus musculus. In words: ED50 value by rotarod test on mice at different dosage levels upon subcutaneous administration. The format is functional. The conditions noted are these: sc.
The target of assay [2] is T1, Glutamate receptor ionotropic, NMDA 1 (Rattus norvegicus, UniProt P35439). In words: Binding affinity by displacement of [3H]TCP from PCP N-methyl-D-aspartate glutamate receptor of tissue homogenate preparation of rat brain without cerebellum. The class given is tissue-based. (Displacement assays read how much labelled ligand stays bound in the presence of the test substance.)

Assay [3] deals with Mus musculus. Kind of assay: Effective dose after subcutaneous administration using rotarod test in mice. The format is functional. (In general: In the rotarod test animals must keep their balance on a rotating rod.)
The target in assay [4] is T1, Glutamate receptor ionotropic, NMDA 1. Kind of assay: Binding affinity by displacement of [3H]TCP from PCP N-methyl-D-aspartate glutamate receptor of tissue homogenate preparation of rat brain without cerebellum (in vitro). The class given is tissue-based.

Each structure is given as a SMILES string.

As a reminder, the ED50 is the midpoint of the dose-response relation. Usually Ki stands for a measure of affinity in units of concentration, obtained from inhibition or displacement.

As to `N=C(c1ccccc1)C1(N2CCCCC2)CCCCC1`, in the assay with Mus musculus [1], the ED50 is above 100 mg/kg. In assay [2], this compound gave a Ki of 31 µM. For `CC1CCCCC1(C(=N)c1ccccc1)N1CCCCC1` (cis isomer), in that order: above 100 mg/kg and 4.7 µM. `CC1CCCCC1(c1ccccc1)N1CCCCC1` (stereo in doubt; 3): the median effective dose (ED50) in the assay on Mus musculus [3] is above 150 mg/kg. Moreover, in assay [4], the Ki turned out to be 7400 nM. The like results for `CC1CCC(c2ccccc2)(N2CCCCC2)CC1` (stereo in doubt; 17) were, in that order, above 150 mg/kg and 617 nM. The like results for `CC1CCC(c2ccccc2)(N2CCCCC2)CC1` (stereo in doubt; 18) were, in that order, 5.5 mg/kg and 166 nM. For `CC1CCCCC1(c1ccccc1)N1CCCCC1` (stereo in doubt; (+)-2), in that order: 7.5 mg/kg and 100 nM. In the assay on Mus musculus [3], `CC1CCCCC1(c1ccccc1)N1CCCCC1` (stereo in doubt; (+)-3) gave an ED50 above 100 mg/kg. In addition, in assay [4], the affinity corresponds to a Ki of 2940 nM. Turning to `CC1CCCCC1(c1ccccc1)N1CCCCC1` (stereo in doubt; (-)-2), the ED50 in the assay on Mus musculus [3] came out at 1.9 mg/kg. In addition, in assay [4], the affinity corresponds to a Ki of 11 nM. `CC1CCCCC1(c1ccccc1)N1CCCCC1` (stereo in doubt; (-)-3) came in with a Ki in assay [4] of 2180 nM. The compound `CC1CCCCC1(c1ccccc1)N1CCCCC1` (trans isomer) registered an ED50 with Mus musculus [3] of 3.3 mg/kg. In assay [4], this compound returned a Ki of 25 nM. Consider `CC1CCCCC1(C(=N)c1ccccc1)N1CCCCC1` (trans isomer), for which the affinity in assay [2], expressed as Ki, was 23 µM.

Consider `c1ccc(C2(N3CCCCC3)CCCCC2)cc1` [PHENCYCLIDINE], for which the ED50 in the assay with Mus musculus [3] (Mus musculus, sc, read-out: ED50) came out at 4 mg/kg. The compound further displayed a Ki in assay [4] of 53 nM.
